The record followed here is US12516054B2, “Pyrazolo[1,5-a]pyridine derivatives, preparation method therefor and use thereof” (SHANGHAI DAIDAI INVESTMENT CONSULTING CO., LTD, priority 2019, dated 2026).

Assay [1] deals with TT cells. Put plainly: Inhibition of proliferation of tumor cells with abnormal RET (TT cells), CellTiter-Glo. It counts as cell-based. As to conditions: 192 h, TT cells (human MTC, RET C634W), incubated 8 d, read-out: IC50 for inhibition on TT cell proliferation. As to the method: The following method was used to determine the inhibitory activity of the preferred compound of the present disclosure on the proliferation of TT cells in vitro. TT cells were a human medullary thyroid cancer (MTC) cell line, including the RET C634W mutation. The cell line was purchased from the American ATCC (Cat. No. ATCC® CRL-1803). The cells were cultivated at 37° C. and 5% CO2 with the Ham's F-12K (Kaighn's) medium (purchased from Thermofisher, Gibco, Cat. No. 21127022) that was supplemented with 10% fetal bovine serum (FBS, purchased from Thermofisher, Gibco, Cat. No. 12483-020), 1× Glutamax (purchased from Thermofisher, Gibco, Cat. No. 35050061), 1× non-essential amino acids (purchased from Thermofisher, Gibco, Cat. No. 11140050), and 1× Pen/Strep antibiotics (purchased from Thermofisher, Gibco, Cat. No. 15140122). Cell viability was determined using CellTiter-Glo® Luminescent Cell Viability Assay (Cat. No. G7573) of Promega.
Brief description of an experimental method: The day before the formal experiment, the cells at the logarithmic growth phase were digested with trypsin (purchased from Thermofisher, Gibco, Cat. No. 25300054), then an appropriate volume of the medium was added to terminate the trypsin reaction, and a resulting mixture was centrifuged at a speed of 1,000 rpm; a resulting supernatant was removed, and fresh medium was added to prepare a cell suspension; and 50 µL of the cell suspension was added to a 96-well cell culture plate (purchased from Corning, Cat. No. 3904) with a cell density of 6,000 cells/well, and then the cell culture plate was incubated overnight at 37° C. and 5% CO2. […] After the incubation was completed, 50 μL of a CellTiter-Glo reagent was added to each well, a resulting mixture was thoroughly shaken and then incubated at room temperature for 10 min in the dark, and then a signal of each well was read on the Envision microplate reader (Perkin Elmer). […]

For assay [2], the target named is GST-hRET kinase (658-1114) (Homo sapiens (Human), UniProt P07949). Kind of assay: Inhibitory activity on RET enzyme (HTRF KinEASE-TK). It counts as biochemical. As to conditions: 0.5 nM RET kinase, 10 μM ATP, read-out: IC50 for inhibition on RET enzyme activity. As to the method:
2. Reagent Preparation • (1) 1× enzyme reaction buffer: 5× enzyme reaction buffer was diluted with ultrapure water (UPW) at 4:1, and then 25 nM SEB was added. • (2) 5×RET kinase: RET kinase was diluted with 1× enzyme reaction buffer to 2.5 nM. • (3) 5×ATP: ATP was diluted with 1× enzyme reaction buffer to 50 μM. • (4) 5× substrate: TK substrate-biotin was diluted with 1× enzyme reaction buffer to 2,500 nM. • (5) 2.5× compound: The highest final concentration was 2,500 nm, 3-fold gradient dilution was conducted to obtain 10 dilution points, and a final DMSO concentration was 0.4%. • (6) 4× Steptavidin-XL665: Steptavidin-XL665 was diluted with 1× enzyme reaction buffer to […]. 3. Experimental Process • (1) 5×RET kinase was added to a 384-well plate at 2 μl/well (final concentration of 0.5 nM), and a blank group (enzyme reaction buffer) was set as a negative control. • (2) A 2.5× compound solution was added at 4 μl/well, and then the plate was incubated at room temperature for 30 min. A DMSO group was set as a positive control. • (3) 5× substrate (at 2 μl/well, final concentration: 500 nM) and 5×ATP (at 2 μl/well, final concentration: 10 μM) were added to start a reaction, and the reaction was conducted at room temperature for 30 min. • (4) TK Antibody-Cryptate (at 5 μl/well) and 4× Steptavidin-XL665 (at 5 μl/well, final concentration: […]) were added, and the plate was incubated at room temperature for 60 min. • (5) An HTRF signal was read on Envision. 4. Data Analysis
The dosage effect (IC50) of the compound with analyzed using the Graph Pad prism software.

Chain of GST-hRET kinase (658-1114) (P07949 658-1114): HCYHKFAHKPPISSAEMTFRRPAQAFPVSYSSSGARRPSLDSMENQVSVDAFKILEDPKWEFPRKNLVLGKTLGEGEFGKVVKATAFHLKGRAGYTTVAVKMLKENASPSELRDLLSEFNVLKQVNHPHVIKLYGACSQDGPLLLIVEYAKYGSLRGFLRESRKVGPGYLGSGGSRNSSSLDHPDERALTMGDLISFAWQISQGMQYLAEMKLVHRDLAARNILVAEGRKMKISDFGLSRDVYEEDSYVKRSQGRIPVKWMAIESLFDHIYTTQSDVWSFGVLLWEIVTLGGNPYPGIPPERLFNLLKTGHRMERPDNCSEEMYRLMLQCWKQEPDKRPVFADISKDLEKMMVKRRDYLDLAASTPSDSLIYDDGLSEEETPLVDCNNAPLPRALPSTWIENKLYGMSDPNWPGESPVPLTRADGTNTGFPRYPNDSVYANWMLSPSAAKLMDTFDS

On to `COc1ccc(C(=O)N2CC=C(c3ccc(-c4cc(OCC(C)(C)O)cn5ncc(C#N)c45)cn3)CC2)cn1` [Compound 8, 6-(2-hydroxy-2-methylpropoxy)-4-(1′-(6-methoxynicotinoyl)-1′,2′,3′,6′-tetrahydro-[2,4′-bipyridin]-5-yl)pyrazolo[1,5-a]pyridine-3-carbonitrile], for which the IC50 in assay [1] was 87.8 nM.

As to `COc1ccc(CN2C3CC2CN(c2ccc(-c4cc(CCC(C)(C)O)cn5ncc(C#N)c45)cn2)C3)cn1` [Compound 10, 6-(3-hydroxy-3-methylbutyl)-4-(6-(6-((6-methoxypyridin-3-yl)methyl)-3,6-diazabicyclo[3.1.1]heptan-3-yl)pyridin-3-yl)pyrazolo[1,5-a]pyridine-3-carbonitrile], the IC50 in assay [1] was 68.6 nM; in assay [2], 5.6 nM.

In the case of `COc1ccc(CN2CC=C(c3ccc(-c4cc(-c5cnn(C)c5)cn5ncc(C#N)c45)cn3)CC2)cn1` [Compound 1, 4-(1′-((6-methoxypyridin-3-yl)methyl)-1′,2′,3′,6′-tetrahydro-[2,4′-bipyridin]-5-yl)-6-(1-methyl-1H-pyrazol-4-yl)pyrazolo[1,5-a]pyridine-3-carbonitrile], the IC50 in assay [1] was 28.9 nM; in assay [2], 23.1 nM.

As to `COc1ccc(CN2CC=C(c3ccc(-c4cc(OCC(C)(C)O)cn5ncc(C#N)c45)cn3)CC2)cn1` [Compound 2, 6-(2-hydroxy-2-methylpropoxy)-4-(1′-((6-methoxypyridin-3-yl)methyl)-1′,2′,3′,6′-tetrahydro-[2,4′-bipyridin]-5-yl)pyrazolo[1,5-a]pyridine-3-carbonitrile], in assay [2], the IC50 was found to be 25.4 nM.
